The target in this test is BRAF V600E (Homo sapiens, UniProt P15056, V600E). In words: HiBiT cellular BRAF^V600E degradation assay. The test is classed as cell-based. As to conditions: for DC50: concentration at which 50% of total cellular BRAF^V600E is degraded; for Emax: read-out: HiBit 24 h Emax. (With HiBiT, luminescence reflects the tagged protein that the partner subunit can reach.)
Setting [1] is: A375.10 cells, 24 h, residual protein remaining in the cell.

Like-named read-outs stand apart in the source and are kept apart here.

BRAF V600E, sequence (P15056 whole entry V600E): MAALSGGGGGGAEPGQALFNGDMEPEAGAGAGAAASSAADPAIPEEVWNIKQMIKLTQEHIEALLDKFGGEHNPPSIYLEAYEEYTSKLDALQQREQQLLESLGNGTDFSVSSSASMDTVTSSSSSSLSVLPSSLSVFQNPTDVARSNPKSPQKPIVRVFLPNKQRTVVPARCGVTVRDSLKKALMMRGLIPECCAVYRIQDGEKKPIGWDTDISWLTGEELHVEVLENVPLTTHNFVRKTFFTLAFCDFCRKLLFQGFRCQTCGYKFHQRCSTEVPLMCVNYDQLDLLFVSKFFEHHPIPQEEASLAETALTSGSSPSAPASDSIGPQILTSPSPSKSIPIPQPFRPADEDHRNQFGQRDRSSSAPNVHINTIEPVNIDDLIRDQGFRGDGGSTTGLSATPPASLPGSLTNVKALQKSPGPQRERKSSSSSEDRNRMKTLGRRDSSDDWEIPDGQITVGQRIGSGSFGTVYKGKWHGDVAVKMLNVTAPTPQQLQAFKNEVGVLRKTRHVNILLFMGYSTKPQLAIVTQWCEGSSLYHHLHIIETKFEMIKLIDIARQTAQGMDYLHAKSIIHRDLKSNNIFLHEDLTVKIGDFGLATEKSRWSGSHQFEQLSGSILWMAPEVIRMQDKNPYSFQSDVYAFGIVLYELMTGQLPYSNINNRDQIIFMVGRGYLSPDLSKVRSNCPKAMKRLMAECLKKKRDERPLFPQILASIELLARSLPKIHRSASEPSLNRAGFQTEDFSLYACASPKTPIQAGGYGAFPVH

As a reminder, the DC50 is the concentration giving 50% degradation. The term Emax denotes the greatest response seen or fitted, relative to the assay's reference. In the case of `Cn1nc(N2CCC(=O)NC2=O)c2cc(F)c(N3CCC(O)(CC(=O)N4CCC5(CC4)C[C@@H](n4cnc6ccc(Oc7c(F)ccc(NS(=O)(=O)N8CCCCC8)c7C#N)cc6c4=O)CO5)CC3)cc21` [Example 187, N-[2-cyano-3-[3-[(3R)-8-[2-[1-[3-(2,4-dioxo-1,3-diazinan-1-yl)-5-fluoro-1-methylindazol-6-yl]-4-hydroxypiperidin-4-yl]acetyl]-1-oxa-8-azaspiro[4.5]decan-3-yl]-4-oxoquinazolin-6-yl]oxy-4-fluorophenyl]piperidine-1-sulfonamide], the DC50 (A375.10 cells, 24 h) came out at 38.8 nM. Further, under setting [1], the Emax is 24.1%.

Compound `Cn1nc(N2CCC(=O)NC2=O)c2cc(F)c(N3CCC(O)(CC(=O)N4CCC5(CC4)C[C@@H](n4cnc6ccc(Oc7c(F)ccc(NS(=O)(=O)C8CCC8)c7C#N)cc6c4=O)CO5)CC3)cc21` [Example 198, N-[2-cyano-3-[3-[(3R)-8-[2-[1-[3-(2,4-dioxo-1,3-diazinan-1-yl)-5-fluoro-1-methylindazol-6-yl]-4-hydroxypiperidin-4-yl]acetyl]-1-oxa-8-azaspiro[4.5]decan-3-yl]-4-oxoquinazolin-6-yl]oxy-4-fluorophenyl]cyclobutanesulfonamide] gave a DC50 (A375.10 cells, 24 h) of 28.7 nM. Moreover, the Emax under setting [1] stood at 28.1%.

`Cn1nc(N2CCC(=O)NC2=O)c2cc(F)c(N3CCC(O)(CC(=O)N4CCC5(CC4)C[C@@H](n4cnc6ccc(Oc7c(F)ccc(NS(=O)(=O)N8CCC8)c7C#N)cc6c4=O)CO5)CC3)cc21` [Example 196, N-[2-cyano-3-[3-[(3R)-8-[2-[1-[3-(2,4-dioxo-1,3-diazinan-1-yl)-5-fluoro-1-methylindazol-6-yl]-4-hydroxypiperidin-4-yl]acetyl]-1-oxa-8-azaspiro[4.5]decan-3-yl]-4-oxoquinazolin-6-yl]oxy-4-fluorophenyl]azetidine-1-sulfonamide] showed a DC50 (A375.10 cells, 24 h) of 9990 nM. Besides, under setting [1], the Emax came to 89.4%.

The compound `CCN(C)S(=O)(=O)Nc1ccc(F)c(Oc2ccc3ncn([C@H]4COC5(CCN(C(=O)CN6CCC(c7ccc(NC8CCC(=O)NC8=O)cc7F)CC6)CC5)C4)c(=O)c3c2)c1C#N` (single isomer, unassigned) [Example 34] gave a DC50 (A375.10 cells, 24 h) of 29.9 nM. Besides, the Emax under setting [1] was 10.8%.

With `CN(C1CC1)S(=O)(=O)Nc1ccc(F)c(Oc2ccc3ncn(-c4cnc(N5CCN(C(=O)CN6CCC(c7ccc(N[C@@H]8CCC(=O)NC8=O)cc7F)CC6)CC5)nc4)c(=O)c3c2)c1C#N` [Example 126, 6-[2-cyano-3-[[cyclopropyl(methyl)sulfamoyl]amino]-6-fluorophenoxy]-3-[2-[4-[2-[4-[4-[[(3R)-2,6-dioxopiperidin-3-yl]amino]-2-fluorophenyl]piperidin-1-yl]acetyl]piperazin-1-yl]pyrimidin-5-yl]-4-oxoquinazoline], for the setting “A375.10 cells, 24 h”, half-maximal degradation (DC50) was put at 22.2 nM. Besides, under setting [1], the Emax turned out to be 13.7%.

With `CCN(C)S(=O)(=O)Nc1ccc(F)c(Oc2ccc3ncn([C@H]4COC5(CCN(C(=O)CN6CC[C@@H](c7cc8c(cc7F)c(N7CCC(=O)NC7=O)nn8C)C(F)(F)C6)CC5)C4)c(=O)c3c2)c1C#N` (single isomer, unassigned) [Example 204], the DC50 (A375.10 cells, 24 h) turned out to be 29.8 nM. For the same compound, the maximal response (Emax) under setting [1] amounted to 10.9%.

As to `Cn1nc(N2CCC(=O)NC2=O)c2cc(F)c(N3CCC(O)(CC(=O)N4CCC5(CC4)C[C@@H](n4cnc6ccc(Oc7c(F)ccc(NS(=O)(=O)C8CC8)c7C#N)cc6c4=O)CO5)CC3)cc21` [Example 192, N-[2-cyano-3-[3-[(3R)-8-[2-[1-[3-(2,4-dioxo-1,3-diazinan-1-yl)-5-fluoro-1-methylindazol-6-yl]-4-hydroxypiperidin-4-yl]acetyl]-1-oxa-8-azaspiro[4.5]decan-3-yl]-4-oxoquinazolin-6-yl]oxy-4-fluorophenyl]cyclopropanesulfonamide], the DC50 (A375.10 cells, 24 h) was 31.7 nM. Further, the Emax under setting [1] came out at 32.2%.

As for `CCN(C)S(=O)(=O)Nc1ccc(F)c(Oc2ccc3ncn([C@@H]4COC5(CCN(C(=O)CN6CCC(c7ccc(NC8CCC(=O)NC8=O)cc7F)CC6)CC5)C4)c(=O)c3c2)c1C#N` (single isomer, unassigned) [Example 33], the DC50 (A375.10 cells, 24 h) worked out at 32.6 nM. Further, the Emax under setting [1] was 8.77%.

Under “A375.10 cells, 24 h”, `CCN(C)S(=O)(=O)Nc1ccc(F)c(Oc2ccc3ncn([C@H]4CCC5(CCN(C(=O)CN6CCC(c7ccc(C8CCC(=O)NC8=O)cc7F)C(F)(F)C6)CC5)C4)c(=O)c3c2)c1C#N` (stereo partly drawn) [Example 66, 6-[2-cyano-3-[[ethyl(methyl)sulfamoyl]amino]-6-fluorophenoxy]-3-[(3S)-8-[2-[4-[4-(2,6-dioxopiperidin-3-yl)-2-fluorophenyl]-3,3-difluoropiperidin-1-yl]acetyl]-8-azaspiro [4.5]decan-3-yl]-4-oxoquinazoline] yielded a DC50 of 11.3 nM. Under setting [1], the Emax turned out to be 10.2%.

`CCN(C)S(=O)(=O)Nc1ccc(F)c(Oc2ccc3ncn(-c4cnn(C5CCN(C(=O)CN6CCC(c7ccc(NC8CCC(=O)NC8=O)cc7)CC6)CC5)c4)c(=O)c3c2)c1C#N` (centres unmarked) [Example 18, 6-[2-cyano-3-[[ethyl(methyl)sulfamoyl]amino]-6-fluorophenoxy]-3-[1-[1-[2-[4-[4-[(2,6-dioxopiperidin-3-yl)amino]phenyl]piperidin-1-yl]acetyl]piperidin-4-yl]pyrazol-4-yl]-4-oxoquinazoline] came in with a DC50 (A375.10 cells, 24 h) of 30.7 nM. In addition, the Emax under setting [1] is 18.5%.

With `CO[C@@H]1CCN(S(=O)(=O)Nc2ccc(F)c(Oc3ccc4ncn(-c5cnc(N6CCN(C(=O)CN7CCC(c8ccc(N[C@H]9CCC(=O)NC9=O)cc8F)CC7)CC6)nc5)c(=O)c4c3)c2C#N)C1` [Example 96, (3R)—N-[2-cyano-3-[3-[2-[4-[2-[4-[4-[[(3S)-2,6-dioxopiperidin-3-yl]amino]-2-fluorophenyl]piperidin-1-yl]acetyl]piperazin-1-yl]pyrimidin-5-yl]-4-oxoquinazolin-6-yl]oxy-4-fluorophenyl]-3-methoxypyrrolidine-1-sulfonamide], the Emax amounted to 8.43%. The compound further yielded a DC50 (A375.10 cells, 24 h) of 9.91 nM.

As for `Cn1nc(N2CCC(=O)NC2=O)c2cc(F)c(N3CCC(O)(CC(=O)N4CCC5(CC4)C[C@@H](n4cnc6ccc(Oc7c(F)ccc(NS(=O)(=O)N8CC9CC9C8)c7C#N)cc6c4=O)CO5)CC3)cc21` (stereo partly drawn) [Example 194, N-[2-cyano-3-[3-[(3R)-8-[2-[1-[3-(2,4-dioxo-1,3-diazinan-1-yl)-5-fluoro-1-methylindazol-6-yl]-4-hydroxypiperidin-4-yl]acetyl]-1-oxa-8-azaspiro[4.5]decan-3-yl]-4-oxoquinazolin-6-yl]oxy-4-fluorophenyl]-3-azabicyclo[3.1.0]hexane-3-sulfonamide], it took 42.8 nM to reach half-maximal degradation (A375.10 cells, 24 h) (DC50). For the same compound, the Emax under setting [1] stood at 26.2%.

For the setting “A375.10 cells, 24 h”, `CCN(C)S(=O)(=O)Nc1ccc(F)c(Oc2ccc3ncn(C4CCC5(CC4)CCN(C(=O)CC4(O)CCN(c6cc7c(cc6F)c(N6CCC(=O)NC6=O)nn7C)CC4)CC5)c(=O)c3c2)c1C#N` [Example 158, 9-[6-[2-cyano-3-[[ethyl(methyl)sulfamoyl]amino]-6-fluorophenoxy]-4-oxoquinazolin-3-yl]-3-[2-[1-[3-(2,4-dioxo-1,3-diazinan-1-yl)-5-fluoro-1-methylindazol-6-yl]-4-hydroxypiperidin-4-yl]acetyl]-3-azaspiro[5.5]undecane] displayed a DC50 of 25 nM. Further, under setting [1], the Emax was 30%.

Compound `N#Cc1c(NS(=O)(=O)N2CC[C@@H](F)C2)ccc(F)c1Oc1ccc2ncn([C@H]3COC4(CCN(C(=O)CN5CCC(c6ccc(NC7CCC(=O)NC7=O)cc6F)CC5)CC4)C3)c(=O)c2c1` (stereo partly drawn) [Example 49, (3R)—N-[2-cyano-3-[3-[(3R)-8-[2-[4-[4-[(2,6-dioxopiperidin-3-yl)amino]-2-fluorophenyl]piperidin-1-yl]acetyl]-1-oxa-8-azaspiro[4.5]decan-3-yl]-4-oxoquinazolin-6-yl]oxy-4-fluorophenyl]-3-fluoropyrrolidine-1-sulfonamide] returned a DC50 (A375.10 cells, 24 h) of 148 nM. Besides, under setting [1], the Emax came to 10.8%.

Turning to `CCN(C)S(=O)(=O)Nc1ccc(F)c(Oc2ccc3ncn([C@@H]4CCC5(CCN(C(=O)CN6CCC(c7ccc(NC8CCC(=O)NC8=O)cc7F)CC6)CC5)C4)c(=O)c3c2)c1C#N` (single isomer, unassigned) [Example 41], for the setting “A375.10 cells, 24 h”, the DC50 turned out to be 16.1 nM. The Emax under setting [1] was found to be 9.27%.

Where the note is “A375.10 cells, 24 h”, `CCN(C)S(=O)(=O)Nc1ccc(F)c(Oc2ccc3ncn([C@@H]4COC5(CCN(C(=O)CN6CCC(c7ccc(NC8CCC(=O)NC8=O)cc7F)CC6)CC5)C4)c(=O)c3c2Cl)c1C#N` (single isomer, unassigned) [Example 78] displayed a DC50 of 49.7 nM. The Emax under setting [1] worked out at 9.7%.

In turn, `CCN(C)S(=O)(=O)Nc1ccc(F)c(Oc2ccc3ncn([C@H]4COC5(CCN(C6CCC(c7ccc(NC8CCC(=O)NC8=O)cc7F)CC6)CC5)C4)c(=O)c3c2)c1C#N` (single isomer, unassigned) [Example 83] came in with a DC50 (A375.10 cells, 24 h) of 16.3 nM. Under setting [1], the “HiBit 24 h Emax” value worked out at 27.77%.

Regarding `CCN(C)S(=O)(=O)Nc1ccc(F)c(Nc2ccc3ncn([C@H]4COC5(CCN(C(=O)CC6(O)CCN(c7cc8c(cc7F)c(N7CCC(=O)NC7=O)nn8C)CC6)CC5)C4)c(=O)c3c2Cl)c1C#N` (single isomer, unassigned) [Example 185], half-maximal degradation (A375.10 cells, 24 h) (DC50) was put at 5.77 nM. Moreover, the Emax under setting [1] is 18.5%.

As to `CCN(C)S(=O)(=O)Nc1ccc(F)c(Oc2ccc3ncn([C@H]4COC5(CCN(C(=O)CN6CCC(c7ccc(NC8CCC(=O)NC8=O)cc7F)CC6)CC5)C4)c(=O)c3c2F)c1C#N` (stereo partly drawn) [Example 72, (3R)-3-[6-[2-cyano-3-[[ethyl(methyl)sulfamoyl]amino]-6-fluorophenoxy]-5-fluoro-4-oxoquinazolin-3-yl]-8-[2-[4-[4-[(2,6-dioxopiperidin-3-yl)amino]-2-fluorophenyl]piperidin-1-yl]acetyl]-1-oxa-8-azaspiro[4.5]decane], the DC50 (A375.10 cells, 24 h) stood at 39.9 nM. For the same compound, the Emax under setting [1] came out at 8.63%.

(Values after patent publication US12486253B2, “Therapeutics for the degradation of mutant BRAF” (C4 THERAPEUTICS, INC., priority 2021, dated 2025).)
